Experiment: Proton NMR stability check in deuterium oxide after heating and after sunlight exposure
Assay type: physicochemical
Details: with table sugar, Equal, Sweet'N Low and Splenda
Procedure: All ^1H NMR spectra were obtained on a Varian Mercury 300 NMR spectrometer operating at ambient temperature. Solutions were prepared in deuterium oxide solvent (isotopically labeled water). Samples were prepared by dissolving a measured amount of solid in sufficient solvent to produce a total volume of approximately 1 mL. Initial samples were prepared just before spectra were obtained in order to minimize possible premature hydrolysis or attack by microbes in the case of sugar solutions. Samples were later re-examined after heating at 70.0 to 92.0° C. (158 to 198° F.) for 98 minutes and then again after being stored outside on the roof exposed to Central Florida sunlight and heat for 47.3 hours.

chemical compatibility with sweeteners: chemically compatible
SMILES: O=C1O[C@H]([C@@H](O)CO)C(O)=C1O [Vit. C, ascorbic acid]

— patent US20050214412A1, “APPARATUS AND METHOD FOR DELIVERING NUTRITIONAL SUPPLEMENTS WITH BEVERAGE SWEETENERS” (priority 2004, published 2005)
